In one assay the test system is SGC-7901. Kind of assay: Cytotoxicity against human SGC7901 cells after 48 hrs by MTT assay. In kind it is functional, cell-based. To be noted: SGC-7901, 48 h.
A further assay concerns HepG2. Nature of the assay: Cytotoxicity against human HepG2 cells after 48 hrs by MTT assay. It counts as functional, cell-based. The settings on record: HepG2, 48 h. A general note: Tetrazolium assays rely on reduction of a dye to a coloured formazan, in cell work by metabolically active cells.

As for `O=C1C(=O)c2c(nc3ncnn3c2-c2cccs2)-c2ccccc21`, the IC50 – broadly, the concentration at which inhibition is half-maximal – worked out at 1.45 µM with SGC-7901 and 2.13 µM with HepG2.

`O=C1C(=O)c2c(nc3ncnn3c2-c2cccc([N+](=O)[O-])c2)-c2ccccc21`: the concentration for half-maximal inhibition (IC50) in the assay with SGC-7901 stood at 9.88 µM; in the assay with HepG2 it was 15.3 µM.

Regarding `O=C1C(=O)c2c(nc3ncnn3c2-c2ccc(Cl)cc2)-c2ccccc21`, the values for the IC50 in the assay on SGC-7901 and in the assay with HepG2 were 34.9 µM and 24.9 µM, respectively.

For the compound `COc1cc(-c2c3c(nc4ncnn24)-c2ccccc2C(=O)C3=O)cc(OC)c1OC`, the IC50 stood at 59.2 µM with SGC-7901 and 17.9 µM in the assay on HepG2.

`COc1ccc(-c2c3c(nc4ncnn24)-c2ccccc2C(=O)C3=O)cc1`: the results for the half-maximal inhibitory concentration (IC50) in the assay with SGC-7901 and in the assay on HepG2 were 1.31 µM and 1.71 µM, respectively.

`Clc1ccc(-c2c3c(nc4ncnn24)c2ccccc2c2nc4ccccc4nc23)cc1`: the half-maximal inhibitory concentration (IC50) in the assay on SGC-7901 and in the assay with HepG2 was greater than 200 µM in each case.

`O=C1C(=O)c2c(nc3ncnn3c2-c2ccccc2)-c2ccccc21`: the IC50 in the assay with SGC-7901 amounted to 2.16 µM; in the assay on HepG2 it was 3.45 µM.

Turning to `Cc1ccc(-c2c3c(nc4ncnn24)-c2ccccc2C(=O)C3=O)cc1`, the IC50 was 1.71 µM in the assay with SGC-7901 and 1.19 µM in the assay on HepG2.

For `COc1cccc2c1C(=O)c1c(O)c3c(c(O)c1C2=O)C[C@@](O)(C(=O)CO)C[C@@H]3O[C@H]1C[C@H](N)[C@H](O)[C@H](C)O1` [DOXORUBICIN], the values for the concentration for half-maximal inhibition (IC50) with SGC-7901 and with HepG2 were 5.72 µM and 1.02 µM, respectively.

As to `O=C1C(=O)c2c(nc3ncnn3c2-c2ccc(F)cc2)-c2ccccc21`, the concentration for half-maximal inhibition (IC50) in the assay with SGC-7901 was 6.12 µM; with HepG2, 7.85 µM.

For `O=C1C(=O)c2c(nc3ncnn3c2-c2ccc(Cl)cc2Cl)-c2ccccc21`, the IC50 in the assay on SGC-7901 was determined as 1.83 µM; with HepG2, 2.99 µM.

On to `O=C1C(=O)c2c(nc3ncnn3c2-c2ccc([N+](=O)[O-])cc2)-c2ccccc21`, for which the figures for the IC50 in the assay with SGC-7901 and with HepG2 were 2.65 µM and 4.74 µM, respectively.

Source of the values: ChEMBL document CHEMBL2413021, “Regioselective synthesis of 6-aryl-benzo[h][1,2,4]-triazolo[5,1-b]quinazoline-7,8-diones as potent antitumoral agents” (Bioorg Med Chem Lett, 2013).
